System: rats
Assay: Spontaneous withdrawal tests (body weight)
Assay type: in vivo
Settings: for Weight after withdrawal compared with weight one day before withdrawal: IV-12-2 100 mg/kg
[1] = IV-12-1 (75 mg/kg), 156 h after withdrawal
[2] = IV-12-1 (75 mg/kg), 162 h after withdrawal
[3] = IV-12-1 (75 mg/kg), 168 h after withdrawal
[4] = IV-12-2 (75 mg/kg), 12 h after withdrawal
[5] = IV-12-2 (75 mg/kg), 18 h after withdrawal
[6] = IV-12-2 (75 mg/kg), 24 h after withdrawal
[7] = IV-12-2 (75 mg/kg), 36 h after withdrawal
[8] = IV-12-2 (75 mg/kg), 42 h after withdrawal
[9] = IV-12-2 (75 mg/kg), 48 h after withdrawal
[10] = IV-12-2 (75 mg/kg), 66 h after withdrawal
[11] = IV-12-2 (75 mg/kg), 72 h after withdrawal
[12] = IV-12-2 (75 mg/kg), 84 h after withdrawal
[13] = IV-12-2 (75 mg/kg), 90 h after withdrawal
[14] = IV-12-2 (75 mg/kg), 96 h after withdrawal
[15] = IV-12-2 (75 mg/kg), 108 h after withdrawal
[16] = IV-12-2 (75 mg/kg), 120 h after withdrawal
[17] = IV-12-2 (75 mg/kg), 138 h after withdrawal
[18] = IV-12-2 (75 mg/kg), 144 h after withdrawal
[19] = IV-12-2 (75 mg/kg), 156 h after withdrawal
[20] = IV-12-2 (75 mg/kg), 162 h after withdrawal
[21] = IV-12-2 (75 mg/kg), 168 h after withdrawal

## Nc1ccc(CN2CCN(CC(=O)c3ccccc3)CC2)cc1 [IV-12, N^1-(4-aminobenzyl)-N^4-phenacyl piperazine]
[1]
  Increase (%) of weight: 15.7%
  Weight: 279.0 ± 44 g
[2]
  Increase (%) of weight: 12.4%
  Weight: 271.0 ± 44 g
[3]
  Increase (%) of weight: 11.7%
  Weight: 269.2 ± 45 g
IV-12-1 (75 mg/kg), before withdraw
  Weight: 241.1 ± 38 g
♀, 42 h after withdrawal
  Weight after withdrawal compared with weight one day before withdrawal: 1.01 ± 0.05
♀, 66 h after withdrawal
  Weight after withdrawal compared with weight one day before withdrawal: 1.01 ± 0.06
♀, 90 h after withdrawal
  Weight after withdrawal compared with weight one day before withdrawal: 1.02 ± 0.06
♀, 114 h after withdrawal
  Weight after withdrawal compared with weight one day before withdrawal: 1.02 ± 0.07
♀, 138 h after withdrawal
  Weight after withdrawal compared with weight one day before withdrawal: 1.04 ± 0.07
♀, 162 h after withdrawal
  Weight after withdrawal compared with weight one day before withdrawal: 1.04 ± 0.07
♂, 18 h after withdrawal
  Weight after withdrawal compared with weight one day before withdrawal: 0.99 ± 0.04
♂, 42 h after withdrawal
  Weight after withdrawal compared with weight one day before withdrawal: 1.00 ± 0.04
♂, 66 h after withdrawal
  Weight after withdrawal compared with weight one day before withdrawal: 1.00 ± 0.05
♂, 90 h after withdrawal
  Weight after withdrawal compared with weight one day before withdrawal: 1.00 ± 0.04
♂, 114 h after withdrawal
  Weight after withdrawal compared with weight one day before withdrawal: 1.01 ± 0.04
♂, 138 h after withdrawal
  Weight after withdrawal compared with weight one day before withdrawal: 1.03 ± 0.06
♂, 162 h after withdrawal
  Weight after withdrawal compared with weight one day before withdrawal: 1.04 ± 0.08
[4]
  Increase (%) of weight: 2.0%
  Weight: 259.8 ± 34 g
[5]
  Increase (%) of weight: 2.0%
  Weight: 259.8 ± 33 g
[6]
  Increase (%) of weight: 0.4%
  Weight: 255.9 ± 32 g
[7]
  Increase (%) of weight: 1.9%
  Weight: 259.5 ± 33 g
[8]
  Increase (%) of weight: 1.4%
  Weight: 258.5 ± 32 g
[9]
  Increase (%) of weight: 0.8%
  Weight: 256.8 ± 31 g
IV-12-2 (75 mg/kg), 60 h after withdrawal
  Weight: 259.6 ± 31 g
[10]
  Increase (%) of weight: 0.8%
  Weight: 256.8 ± 27 g
[11]
  Increase (%) of weight: 0.4%
  Weight: 255.7 ± 29 g
[12]
  Increase (%) of weight: 3.4%
  Weight: 263.6 ± 30 g
[13]
  Increase (%) of weight: 1.3%
  Weight: 258.2 ± 30 g
[14]
  Increase (%) of weight: 0.9%
  Weight: 257.1 ± 28 g
[15]
  Increase (%) of weight: 4.5%
  Weight: 266.3 ± 33 g
IV-12-2 (75 mg/kg), 114 h after withdrawal
  Increase (%) of weight: 2.1%
[16]
  Increase (%) of weight: 1.4%
  Weight: 258.3 ± 29 g
IV-12-2 (75 mg/kg), 132 h after withdrawal
  Weight: 272.6 ± 35 g
[17]
  Increase (%) of weight: 4.0%
  Weight: 264.9 ± 32 g
[18]
  Increase (%) of weight: 3.5%
  Weight: 263.6 ± 32 g
[19]
  Increase (%) of weight: 6.6%
  Weight: 271.5 ± 40 g
[20]
  Increase (%) of weight: 4.9%
  Weight: 267.2 ± 38 g
[21]
  Increase (%) of weight: 4.5%
  Weight: 266.3 ± 36 g
IV-12-2 (75 mg/kg), before withdraw
  Weight: 254.8 ± 32 g
